In patent US20240352069A1, “SYNTHETIC PEPTIDE, AND COSMETIC COMPOSITION OR PHARMACEUTICAL COMPOSITION AND APPLICATION THEREOF” (SHENZHEN WINKEY TECHNOLOGY CO., LTD., priority 2021, published 2024):
Values belong to the molecule of their own block, whether it stands above or below them. Residues, ends and D or L forms follow the SMILES beside them. *: point of attachment. CH2CO2tBu = CC(C)(C)OC(=O)C*; Carboxymethyl = O=C(O)C*; Allyl = C=CC*; X1 = CCCCCCS*; SEt = CCS*

How the values were obtained:
[1] = Stability of powders under high humidity (HPLC purity); type: physicochemical; conditions: powder; for High humidity, Day 10 (purity): RH92.5%, 25° C., 10 days
Protocol: The powder samples of peptides (3)-(7) were placed under high humidity (RH92.5%, 25° C.) conditions for 10 days, and the purity changes of each sample were investigated by HPLC.

[2] = system: NIH3T3 cells; assay: Cell proliferation experiment (MTT), NIH3T3; type: cell-based, mouse; conditions: 24 hours
From the text: (§1) Human keratinocytes (HaCaT) were purchased from the Kunming Cell Bank of the Type Culture Collection Committee of the Chinese Academy of Sciences, and mouse skin fibroblasts (NIH3T3) were purchased from the Shanghai Cell Bank of the Type Culture Collection Committee of the Chinese Academy of Sciences.
(§2) • a) Take cells in good condition in exponential growth phase, add 0.25% trypsin digestion solution, digest to make adherent cells fall off, count 1-4×10^5 cells/mL, and make cell suspension; • b) Appropriately dilute 2000 cells/well of the cell suspension and inoculate it on a 96-well plate at 200 μL/well, and culture it in a constant temperature CO2 incubator for 24 hours. • c) Change the medium, add the sample to be tested, 20 μL/well, and incubate for 24 hours; • d) Add the MTT reagent into the 96-well plate, 20 μL/well, and react in the incubator for 4 hours; • e) Aspirate the supernatant, add DMSO, 150 μL/well, and shake on a plate shaker for 5 minutes; • f) After 5 minutes, use a microplate reader to read the reference OD values at 490 nm and 630 nm wavelengths, and calculate the cell viability:
(§3) MTT method is a method to detect cell survival and growth. The measured OD value is directly proportional to cell activity. The larger the OD value, the higher the cell activity.

[3] = system: HaCaT cells; assay: UVB light damage repair experiment (MTT), HaCaT; type: cell-based, human; conditions: UVB irradiated, 12.5-100 ppm, 24 hours
Protocol: as §1
Take cells in good exponential growth phase, add 0.25% trypsin digestion solution, digest to make adherent cells fall off, count 1×10^5-4×10^5 cells/mL, and make cell suspension.
Cells were seeded into 96-well plates at 10,000 cells/well, and the UVB photodamage model was established when the cells reached about 80% confluent. […]
After 24 hours, add 22 μL of 5 mg/mL MTT to each well, place in an incubator and incubate for 4 hours, discard the original solution, and add 150 μL/well of DMSO. After 5 minutes, use a microplate reader to read the reference OD values at 490 nm and 630 nm wavelengths.
By establishing a UVB light-damaged cell model, administering 24 hours after ultraviolet light irradiation, and using the MTT method to detect cell proliferation activity, the ability of the peptide of the present invention to repair light-damaged cells was evaluated.

[4] = system: HaCaT cells; assay: Cell proliferation experiment (MTT), HaCaT; type: cell-based, human; conditions: 24 hours
From the text: as §1, §2, §3

[5] = system: HaCaT cells; assay: Scratch test (cell migration); type: cell-based, human; conditions: 24 hours after scratch; peptides 100 ppm, EGF 50 U/mL; vs normal control group
Protocol: Human keratinocytes (HaCaT) were purchased from the Kunming Cell Bank of the Type Culture Collection Committee of the Chinese Academy of Sciences.
The cryopreserved HaCaT cells were cultured, subcultured to about 5 passages according to the ratio of 1:2, and the cells with better growth were selected as the experimental objects. Cells were seeded in a 12-well plate at a density of 200,000 cells/well, with 2 mL of cell suspension in each well. After the cells adhered to the wall, the medium was replaced with 0.5% to 1% fetal bovine serum to maintain the cells for 24 hours to synchronize them. change. Scratch with a sterilized pipette tip, wash off the dropped cells with PBS, add the sample to be tested, continue to incubate in a 37° C., 5% CO2 incubator, and place it under an optical microscope after 24 hours to analyze the wound healing area.
The cell scratch migration test can reflect the proliferation and repair ability of the cells.

[6] = Stability of powders at 25° C. and 40° C. (HPLC purity over time)
Protocol: (§4) In Example 29, the HPLC chromatographic separation conditions were as follows: • Chromatographic column: Octadecyl bonded silica gel as filler 4.6*250 mm, 5 m • Mobile phase A: Acetonitrile (containing 0.09% trifluoroacetic acid) • Mobile phase B: 0.1% trifluoroacetic acid • Diluent: water • Flow rate: 1.0 ml/min; • Column temperature: 35° C.; • Detection wavelength: 215 nm; • Injection volume: 10 μl; • Running time: 32 min • Gradient elution table:
(§5) The test solution: Take an appropriate amount of this product and add water to dissolve and dilute to make a solution containing 1 mg per 1 ml.

[7] = Stability of aqueous solutions (HPLC purity over time); type: physicochemical
Protocol: as §4, §5

[8] = 12.5 ppm-100 ppm, vs PBS blank control

Molecule: CCC(C)C(NC(=O)CNC(=O)C(CCSC)NC(=O)C(CCCNC(=N)N)NC(=O)C(Cc1ccccc1)NC(=O)C1CCCN1C(=O)C(C)N)C(=O)NC(CSCC(=O)OC(C)(C)C)C(=O)NC(C(=O)NC(C(=O)NC(CC(N)=O)C(=O)O)C(C)O)C(C)O (stereo not shown) [(4)] (H-APFRMGIC(CH2CO2tBu)TTN-OH; configuration not given here)
Day 0 (purity) [1]: 96.017% | High humidity, Day 10 (purity) [1]: 93.962%

Molecule: EGF: epidermal growth factor (EGF), 50 U/mL, positive group in the scratch test
scratch spacing (proliferation and migration) [5]: spacing was significantly shortened

Molecule: H-Ala-Pro-Phe-Arg-Met-Gly-Ile-Cys-Thr-Thr-Asn-OH (H-APFRMGICTTN-OH) [Reference peptide A]
powder (purity) ([6]; 25° C., Day 5): 85.913% | powder (purity) ([6]; 40° C., Day 5): 57.503% | powder (purity) ([6]; 40° C., Day 5, listed as reference peptide A): 57.503% | powder (purity) ([6]; powder, Day 0): 88.030% | aqueous solution (purity) ([7]; Day 8 at room temperature): 80.880% | aqueous solution (purity) ([7]; Day 18 at room temperature): 72.693% | aqueous solution (purity) ([7]; Day 18 at room temperature, listed as reference peptide A): 72.693% | aqueous solution (purity) ([7]; Solution, Day 0): 88.030% | aqueous solution (purity) ([7]; Solution, Day 0, listed as reference peptide A): decreased significantly

Continued, in another order:

Day 0 (purity) [1]: 97.482% | High humidity, Day 10 (purity) [1]: 94.603%
Molecule: CCSSCC(NC(=O)C(NC(=O)CNC(=O)C(CCSC)NC(=O)C(CCCNC(=N)N)NC(=O)C(Cc1ccccc1)NC(=O)C1CCCN1C(=O)C(C)N)C(C)CC)C(=O)NC(C(=O)NC(C(=O)NC(CC(N)=O)C(=O)O)C(C)O)C(C)O (stereo not shown) [(5)] (H-APFRMGIC(SEt)TTN-OH; configuration not given here)

Day 0 (purity) [1]: 96.235% | High humidity, Day 10 (purity) [1]: 95.719%
Molecule: CCCCCCSSCC(NC(=O)C(NC(=O)CNC(=O)C(CCSC)NC(=O)C(CCCNC(=N)N)NC(=O)C(Cc1ccccc1)NC(=O)C1CCCN1C(=O)C(C)N)C(C)CC)C(=O)NC(C(=O)NC(C(=O)NC(CC(N)=O)C(=O)O)C(C)O)C(C)O (stereo not shown) [(6)] (H-APFRMGIC(X1)TTN-OH; configuration not given here)

Day 0 (purity) [1]: 98.541% | High humidity, Day 10 (purity) [1]: 97.863%
Molecule: CCC(C)C(NC(=O)CNC(=O)C(CCSC)NC(=O)C(CCCNC(=N)N)NC(=O)C(Cc1ccccc1)NC(=O)C1CCCN1C(=O)C(C)N)C(=O)NC(CSCC(=O)O)C(=O)NC(C(=O)NC(C(=O)NC(CC(N)=O)C(=O)O)C(C)O)C(C)O (stereo not shown) [(7)] (H-APFRMGIC(Carboxymethyl)TTN-OH; configuration not given here)

Day 0 (purity) [1]: 97.605% | High humidity, Day 10 (purity) [1]: 96.251%
Molecule: C=CCSCC(NC(=O)C(NC(=O)CNC(=O)C(CCSC)NC(=O)C(CCCNC(=N)N)NC(=O)C(Cc1ccccc1)NC(=O)C1CCCN1C(=O)C(C)N)C(C)CC)C(=O)NC(C(=O)NC(C(=O)NC(CC(N)=O)C(=O)O)C(C)O)C(C)O (stereo not shown) [Peptide (3)] (H-APFRMGIC(Allyl)TTN-OH; configuration not given here)
impact on the activity of NIH3T3 cells compared among peptides (1)-(5) ([2]; 12.5-100 ppm): greater impact on the activity of NIH3T3 cells | effect on the activity of NIH3T3 cells (MTT) [2, 8]: could improve the activity of NIH3T3 cells and promote their proliferation | effect on improving activity of photodamaged HaCaT cells compared among peptides (1)-(5) [3]: better effect on improving cell activity | impact on the activity of HaCaT cells compared among peptides (1)-(5) ([4]; 12.5-100 ppm): greater impact on the activity of HaCaT cells | effect on the activity of HaCaT cells (MTT) [4, 8]: could both improve the activity of HaCaT cells, promote their proliferation
